{
  "source": "ChEMBL document CHEMBL5576135",
  "about": "“Discovery of Indolo[3,2-c]isoquinoline Derivatives as Novel Top1/2 Dual Inhibitors with Orally Efficacious Antitumor Activity and Low Toxicity” (J Med Chem, 2024)",
  "key": {"NCI-H446 [1]": {"tested_on": "NCI-H446", "assay": "Antitumor activity against human NCI-H446 cells xenografted with BALB/c mouse assessed as tumor growth inhibition by measuring T/C ratio at 100 mg/kg,po administrated once daily for 21 days", "type": "functional", "details": "time 21 day"}, "[2]": {"molecular_target": "T1, DNA topoisomerase 1 (Homo sapiens) (UniProt P11387)", "T1 sequence (whole entry)": "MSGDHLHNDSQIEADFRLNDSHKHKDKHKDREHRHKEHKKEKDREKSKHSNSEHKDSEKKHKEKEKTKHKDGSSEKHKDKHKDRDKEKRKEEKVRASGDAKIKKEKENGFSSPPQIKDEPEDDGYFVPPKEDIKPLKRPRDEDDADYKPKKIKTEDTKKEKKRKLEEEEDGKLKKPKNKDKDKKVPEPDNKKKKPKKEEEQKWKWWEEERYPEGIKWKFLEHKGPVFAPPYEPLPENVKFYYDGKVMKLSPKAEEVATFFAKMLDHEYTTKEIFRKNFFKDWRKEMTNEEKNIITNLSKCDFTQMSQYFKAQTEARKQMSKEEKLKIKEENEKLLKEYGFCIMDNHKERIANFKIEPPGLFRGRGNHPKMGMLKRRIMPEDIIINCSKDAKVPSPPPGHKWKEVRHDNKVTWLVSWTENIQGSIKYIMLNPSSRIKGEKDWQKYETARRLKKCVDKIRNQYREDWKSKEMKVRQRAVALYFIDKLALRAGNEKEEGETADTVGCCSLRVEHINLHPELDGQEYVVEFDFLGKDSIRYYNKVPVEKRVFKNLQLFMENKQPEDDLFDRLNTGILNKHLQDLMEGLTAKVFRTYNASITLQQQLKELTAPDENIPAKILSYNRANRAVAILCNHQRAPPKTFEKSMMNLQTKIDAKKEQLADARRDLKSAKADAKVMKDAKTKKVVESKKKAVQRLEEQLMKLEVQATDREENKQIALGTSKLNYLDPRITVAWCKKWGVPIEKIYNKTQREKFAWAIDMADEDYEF", "assay": "Inhibition of Topoisomerase I (unknown origin) using pBR322 DNA as substrate at 5 uM incubated for 15 mins by EtBr staining based agarose gel electrophoresis method"}, "HCT-116 [3]": {"tested_on": "HCT-116", "assay": "Antitumor activity against human HCT-116 cells xenografted with BALB/c mouse assessed as tumor growth inhibition by measuring T/C ratio at 50 mg/kg,po administrated once daily for 21 days", "type": "functional", "details": "time 21 day"}, "NCI-H446 [4]": {"tested_on": "NCI-H446", "assay": "Antitumor activity against human NCI-H446 cells xenografted with BALB/c mouse assessed as tumor growth inhibition at 50 mg/kg,po administrated once daily for 21 days relative to control", "type": "functional", "details": "NCI-H446, 504 h, time 21 day, read-out: TGI"}, "[5]": {"molecular_target": "T1, DNA topoisomerase 1 (Homo sapiens)", "assay": "Inhibition of Topoisomerase I (unknown origin) using pBR322 DNA as substrate at 1 uM incubated for 15 mins by EtBr staining based agarose gel electrophoresis method"}, "HCT-116 [6]": {"tested_on": "HCT-116", "assay": "Antitumor activity against human HCT-116 cells xenografted with BALB/c mouse assessed as tumor growth inhibition at 50 mg/kg,po administrated once daily for 21 days relative to control", "type": "functional", "details": "HCT-116, 504 h, time 21 day, read-out: TGI"}},
  "note": "Activity calls are given as the source filed them. The calls are words filed in the database; no cut-off is given here.",
  "data": [
    {"molecule": "CN(C)CCCn1c2cc3c(cc2c2ncc4ccccc4c21)OCO3", "values": [
      {"measurement": "T/C", "setting": "NCI-H446 [1]", "value": 35.2, "unit": "%"},
      {"measurement": "inhibition", "setting": "[2]", "value": "Active"},
      {"measurement": "T/C", "setting": "HCT-116 [3]", "value": 55, "unit": "%"},
      {"measurement": "inhibition in vivo at 50 mg/kg", "setting": "NCI-H446 [4]", "value": 49.2, "unit": "%"},
      {"measurement": "inhibition", "setting": "[5]", "value": "Active"},
      {"measurement": "inhibition in vivo at 50 mg/kg", "setting": "HCT-116 [6]", "value": 40.8, "unit": "%"}
    ]}
  ]
}
